The text below walks through data of patent US20240424019A1, “SHP1 MODIFIED DENDRITIC CELLS AND EXTRACELLULAR VESICLES DERIVED THEREFROM AND ASSOCIATED METHODS” (BOARD OF REGENTS, THE UNIVERSITY OF TEXAS SYSTEM, priority 2021, published 2024).

Test [1] concerns human iPSC-DCs. Description: Activation of human iPSC-derived DCs by flow cytometry. It counts as cell-based. The following applies: vitamin E 50 μg/ml or TPI-1 1 μg/ml, 72 h, gated on CD11c+. The text has this: FIG. 10A: Representative high magnification photomicrographs (100×, 200×, 400×) illustrating the morphology of colonies and individual cells of fully differentiated iPSC-derived DCs (iPSC-DCs) displaying characteristic DC morphology consisting of protrusions and veils of cytoplasm at the end of the differentiation procedure (day 23) after using the differentiation protocol for the addition and withdrawal of growth factors and cytokines. FIG. 10B: Phenotypic characterization of generated human iPSC-DCs. Representative flow cytometry analysis depicting the expression of DC lineage markers by iPSC-DCs gated on the CD11c+ population. Levels of expression of individual markers are shown as red histograms, while non-specific staining by isotype controls is shown as light blue histograms. FIG. 10C: Phenotypic characterization of human iPSC-DCs after treatment with vitamin E or TPI-1 to inhibit SHP1. Representative flow cytometry analysis (left panel) and quantification (right panel) depicting the expression of indicated activity markers by iPSC-DCs gated on the CD11c+population with the treatment of vehicle, vitamin E (50 μg/ml) or TPI-1 (1 μg/ml) for 72 h.
We explored the feasibility of differentiating populations of primary DCs from iPSCs and characterized the phenotype of iPSC-DC with the pharmacological inhibition of SHP1 by vitamin E or TPI-1. […]

The test system of test [2] is B16-GMCSF melanoma. Description: B16-GMCSF melanoma model. Format: in vivo, mouse.
In test [3] the test system is CD8+ OT-1 T cells. Description: DC-EV in vitro assays (H-2Kb-SIINFEKL on EVs, binding to CD8+ T cells, OT-1 proliferation, IFN-γ ELISA). Format: cell-based, mouse. The following applies: EVs of OVA-loaded BMDCs treated with VitE vs vehicle. The protocol: To generate DC-EVs, BMDCs or DC2.4 were cultured at a density of 2×10^6 cells/ml and treated with LPS (100 ng/ml) for 18 h and then treated with OVA protein (250 μg/ml) for 24 hours in DCs culture media supplemented with 10% exosome depleted FBS, which is prepared by the first ultracentrifugation at 100,000 g for 16 h, and then filtering using a 100 nm filter. Supernatants were collected from 48-72 h DCs cultures and EVs were purified by a standard differential ultracentrifugation. […] The purified exosomes were then analyzed and used for experimental procedures. […]
For FACS analysis, exosomes were conjugated with 4 μm aldehyde/sulfate latex beads (Cat. A37304, Thermo Fisher) by overnight incubation. The EVs-bound beads were incubated with glycine to block remaining binding sites and surface expression of SIINFEKL-loaded MHC-I complexes on DC-EVs was determined by staining with anti-mouse H-2K^b bound to SIINFEKL antibody. […]
To verify the physical interactions between DC-EVs and CD8^+ T cells, purified DC-EVs were stained with DiO (Cat. V22889, Thermo Fisher) in 100 μl PBS, and then washed with 10 ml PBS and pelleted by ultracentrifugation. For cell treatment, DC-EVs (10 μg/ml) (unless specified otherwise) were used on the basis of protein concentration determined by a BCA Protein Assay Kit (Pierce). […] After 72 h, the T-cell proliferation was analyzed by FACS. […]
In general terms: In an ELISA, binding on a coated surface is turned into a signal by an enzyme label.

With `Cc1c(C)c2c(c(C)c1O)CC[C@@](C)(CCC[C@H](C)CCC[C@H](C)CCCC(C)C)O2` [VitE, D-α-Tocopherol], in test [1], the “expression of DC activation markers on iPSC-DCs” value was “increased expression of DC activation markers CD40 and CD86”. Besides, in test [2] (GVAX+VitE (50 mg/kg/day oral gavage day 4-20)), the tumor growth result is listed as “significant tumor inhibition”. Also, the “tumor-infiltrating GZMB+CD8+ T cells” value in test [2] (GVAX+VitE, day 14 post-implantation) is given as “increased tumor-infiltrating cytolytic GZMB CD8^+ T cells”. Further, in test [2] (VitE 50 mg/kg and ICT (anti-PD1) combo-treatment), the therapeutic response result is listed as “significantly improved therapeutic response”. For the same compound, the “level of H-2Kb-SIINFEKL complexes on DC-EVs” value in test [3] is “increased the level of H-2Kb-SIINFEKL complexes on DC-EVs”.
